According to patent US7339042B2, “Gene delivery to tumors” (University of Florida Research Foundation, Inc., priority 2003, dated 2008):
Entries after “also recorded” stand apart in the source; their conditions may differ. No end group written: not given here.

Key:
rat cerebral arteries [1] = assay: Vasodilation and vasoconstriction response of rat cerebral arteries before and after peptide; assay type: cell-based; details: after vs before intraluminal peptide
Protocol: The blood vessels were put in culture described above and perfused with buffer of the same composition as cerebrospinal fluid. Vessel diameter was measured before and after administration of each reagent. 3 μM of each peptide was perfused through for 10 minutes followed by a 10 minute wash through. Vasoconstriction and vasodilation were determined for each vessel before peptide was applied. Perfusion was continued until the vessels relaxed to their original diamter (approximately 30 minutes). The vasoconstriction and vasodilation reponse was remeasured after the 10 minute wash through. The 60 mM KCl and 16 mM KCl conditions are […], respectively. Histamine and Bradykinin are endothelial cell vasodilators.
(§1) In some experiments, the arterial segments were denuded of endothelium by passing an air bubble through the lumen, thus exposing the smooth muscle cells to luminally administered peptides. Constriction to pressure and 60 mM KCl and dilation of arteries with myogenic tone to 16 mM KCl were used as benchmarks of functional arteries. Peptide containing PCSF was perfused intraluminally at an inlet pressure of 70 mmHg with the outlet open, for 20 min and then perfused with normal PCSF. This procedure ensures a 20 min of exposure of the arteries to the peptide.
(§2) Effect of peptide on endothelial and smooth muscle function was evaluated by histamine (0.3 and 1 μM) and bradykinin (0.5 μM) (endothelium-dependent vasodilators) and 16 and 60 mM KCl (results in dilation and constriction of arteries by hyperpolarizing and depolarizing smooth muscle, respectively). These drug solutions were added to the superfusate and applied to the arteries extraluminally for 10 to 15 min before and after intraluminal perfusion with peptides. Effects of these agents were expressed as percent change in myogenic tone (decrease for dilators and increase for constrictors). Experiments were concluded by exposing the arteries to calcium free PCSF to obtain the passive diameter. Cell viability was determined by adding H3334 (Hoechst viability stain, final concentration 1 μM) and propidium iodide (final concentration 1 μM) to the arteriograph after the peptide incubation. Fluorescent micrographs were taken of the vessels after incubation with peptides and following addition of the vital stains using Till Photonics imaging system (Martinsried, Germany).

A172 cells = assay: Fluorescein peptide uptake by A172 cells, fluorescence microscopy; assay type: cell-based, human; details: 30 uM peptide, 1 hr, 37° C., serum containing media
Protocol: (§3) For fluorescent microscopy studies cells were plated on 2 chamber cover slips at a density of 1×10^4 cells/chamber. Cells were incubated with […] peptide for 30 minutes in completed media, washed with PBS 3× and imaged using a Nikon Axiophot inverted fluorescent microscope. Images were taken using a Spot CCD camera.
Synthetic peptides derived from HIV Tat (Tat) and the Drosophila antennaepedia homeodomain (ANT) were tested for cell uptake by A172 cells (human glioblastomas). The peptides were labeled at the N-terminus with fluorescein. Cells were incubated with 30 uM peptide at 37° C. in serum containing media. Fluorescent micrographs were taken after 1 hr incubation at 37° C. […] The size of the peptide was increased by added an Mdm-2 binding domain derived from P14ARF. This domain was added to the C-terminus of the Tat and ANT peptides. The P14ARF domain was also placed at the N-terminus followed by the Tat peptide. All the peptides were labeled at the N-terminus with fluorescein and cell incubations similar to the Tat and ANT peptides were tested for cellular uptake. […] Both the bright field and fluorescent micrographs show altered cell morphology.

[2] = test system: endothelial cells and smooth muscle cells of rat cerebral arteries; assay: Uptake of fluorescent peptides by pressure-mounted rat cerebral arteries; assay type: cell-based
Protocol: Tat-P16 peptides were prepared and labeled with fluorescein for use in uptake studies using intact blood vessels isolated from rat brain. Blood vessels were dissected from rat brain and stabilized in an isolated perfusion system in which vessels were attached on either end to catheters and placed under physiological pressure. Following a 10 minute perfusion of the isolated vessels with flurorescent Tat-P16 peptide (1 μM), vessels were examined for uptake of the peptides. […] Within the endothelial cells, the labeled peptides were seen to be localized to the cell nuclei, further confirming uptake of the peptides by the cells.
The peptides are fairly labile in the media and approximately 50% are degraded upon incubation at 37° C. in complete media (qualitative analysis by PAGE) after 1 hour. […] Uptake of these peptides and cell killing activity was tested in a 3 dimensional organ culture using rat cerebral arteries cultured under physiological pressure and flow. A segment of the rat cerebral artery is surgically removed and placed in ringer's solution. Using a surgical stereoscope, the blood vessel is tied at either end to two cannulas on a teflon stage. Ringer's solution is perfused through the lumen of the vessel at a constant rate that maintains physiologic hydrostatic pressure. The fluorescent peptide was introduced intraluminally by perfusing a 1 μM solution of peptide through the lumen over a 10 minute period.
Rats were anesthetized by intraperitoneal injection of pentobarbital sodium (160 mg/kg) and killed by decapitation. The brain was removed and placed in an ice-cold oxygenated physiological cerebrospinal fluid (PCSF, see below for composition). Cerebellar arteries were isolated and mounted in an arteriograph as described previously (Knot and Nelson 1998). The arteriograph was placed on an inverted microscope and the artery was visualized with a monochrome CCD camera coupled to a calibrated video caliper system to measure arterial diameter. The arteries were slowly pressurized to 70 mmHg under no flow conditions using a pressure servo-null system (Living Systems Inc., Burlington Vt.), and warmed to 37° C. while being continuously superfused (5 ml/min) with PCSF bubbled with 21% O2, 5% CO2, 74% N2 (pH 7.35-7.40 in the bath). […] Myogenic tone is calculated by the following equation: Myogenic tone=(Dp−Da)/Dp×100
as §1

T98G cells = assay: Fusion peptide cell killing, propidium iodide/FACS viability, T98G cells; assay type: cell-based, human; details: 10 μM peptide, 1 hr
Protocol: (§4) Other experiments were performed using two glioma cell lines, i.e., T98G and RG2. 1×10^6 cells per well were incubated in 6-well plates with peptides in complete media for 1 hr. Cells were removed from the plate using a cell stripper and the percentage of viable cells was determined by staining with propidium iodide and analyzing by fluorescence activated cell sorting (FACS).
(§5) Cell viability studies were performed by plating the cells under the same conditions as the uptake studies. Cells were incubated with fluorescent peptides for 1 hr at 37° C. The cells were removed from the plate using cell striper. They were labeled with propidium iodide and fluorescein-AM. Percent PI positive cells were determined by FACS.

RG2 cells [3] = assay: Fluorescein peptide uptake by RG2 cells, fluorescence microscopy; assay type: cell-based, rat
Protocol: as §3
Similar observations were obtained for all the peptides in another human glioblastoma cell line, T98G.

RG2 cells [4] = assay: Fusion peptide cell killing, propidium iodide/FACS viability, RG2 cells; assay type: cell-based, rat
Protocol: as §4
There are 4 conserved amino acid differences between the rat and human CDKI sequence. Both sequences were attached to Tat and tested for cell killing activity in the rat glioma RG2 cells. Also the effect of orientation of the Tat and CDKI domains were tested. RG2 cells were plated on 6 well plates at approximately 70% confluency. Each of the peptides was added to the wells with increasing concentration. After 1 hr, cells were removed from the plates, washed 2× with PBS, stained with propidium iodide and analyzed by FACS for viable cells.
as §5
The cytotoxicity of the chimeric peptides was characterized using a cell viability assay. Peptides were added to cells at a fixed concentration. After a 30-minute incubation, cells were removed from the plate, stained with propidium iodide and the % positive cells were determined by FACS (fluorescent activated cell scanning). The test conditions were Tat, ANT, Tat-P14ARF, ANT-P14ARF and P14ARF. T98G cells were tested along with RG2 cells and A172 cells.

rat cerebral arteries [5] = assay: Cell viability staining of arteries (propidium iodide, H3334) after peptide; assay type: cell-based; details: after treatment with peptide
Protocol: No PI statined smooth muscle cell nuclei were observed.
as §2

A172 glioblastoma cells = assay: Peptide incubation with A172 glioblastoma cells, viability; assay type: cell-based, human; details: 6 μM, 30 minutes at 37° C.
Protocol: Fusion proteins containing a Tat domain and a p16 domain were synthesized as peptides. Two forms of the peptides were made, one with Tat on the amino terminus (designated Tat-P16), and the other with p16 on the amino terminus (P16-Tat). Control peptides were synthesized having only the Tat or P16 sequence. The peptides were incubated with A172 glioblastoma cells, then the cells were assayed for viability.

[6] = intraluminal perfusion of fluorescent peptide

AGGGYGRKKRRQRRRMVRRFLVTLRIRRA [Tat-P14ARF]
endothelium-dependent dilation to histamine and bradykinin (rat cerebral arteries [1]): inhibited endothelial cell response to histamine and bradykinin; also recorded: significantly reduced
smooth muscle response to 60 and 16 mM KCl (rat cerebral arteries [1]): unaffected; also recorded: not affected
endothelium-dependent dilation to histamine and bradykinin (rat cerebral arteries [1]; listed as Tat-CDKI): lack of response to vasodilators
staining pattern (cell uptake) (A172 cells): nuclear staining
morphology of the endothelial cells ([2]; after intraluminal exposure): morphology of the endothelial cells was altered
labeling/uptake by endothelial cells [2, 6]: same labeling pattern as the Tat alone
labeling/uptake by smooth muscle cells [2, 6]: No evidence was seen of uptake
labeling/uptake by endothelial cells ([2]; intraluminal perfusion of fluorescent peptide, listed as Tat-P16): taken up by the endothelial cells; also recorded: localized to the endothelial cells
% killing (toxicity) (T98G cells): 65%
staining pattern (cell uptake) (RG2 cells [3]): nuclear staining
% killing (toxicity) (RG2 cells [4]; 10 μM peptide, 1 hr): 61%
IC50 (RG2 cells [4]; dose response 1 μM to 10 μM): ~10 µM
propidium iodide staining of blood vessels (rat cerebral arteries [5]): predominantly horizontal endothelial nuclei being stained indicating cell death
effect on cells (A172 glioblastoma cells): began to round up and subsequently die
